System: gp96 and αL-HA in RAW264.7 cells
Test: Tunicamycin treatment of RAW264.7 cells, IP and immunoblot
Assay type: cell-based
Conditions: 5 μg/ml Tunicamycin

With Tunicamycin the “binding of immature ER αL-HA to gp96” value (12 hours (FIG. 1E)) was “reduction in binding to gp96”, the “dimerization of matured cell surface αL-HA with β2-myc” value (12 hours (FIG. 1E)) was “no change” and the gp96 expression (12 hours, via unfolded protein response) was “upregulation”.

From patent US20140349944A1, “CHAPERONE-BASED INTEGRIN INHIBITORS FOR THE TREATMENT OF CANCER AND INFLAMMATORY DISEASES” (priority 2013, published 2014)
